Data as given in PubChem BioAssay (NCI).
“And” between values parts separate entries of the source, which are not always exact repeats. Equal entries are not always repeated.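 Briefly, cells in 96-well plates were exposed to five compound concentrations for 48 h, and endpoints were estimated by linear interpolation. GI50 is the concentration that inhibits growth by half. At the TGI there is no net growth.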

tested on: CAKI-1 renal; test: NCI-60 cell line screen, 48 h

Row | Compound | GI50 [µM] | TGI
1 | COc1ccc2c(c1)C(=O)/C(=C/c1ccc(OCC(=O)Nc3nccs3)cc1)O2 | 0.392 | 
2 | Nc1ccc(C(=O)N/C(=C\c2ccc3c(c2)OCO3)c2nc3[nH]c(=S)[nH]c(=O)c3[nH]2)cc1 |  | > 100 µM
3 | O=[N+]([O-])c1cnc(Sc2ccncn2)s1 | 1.64 | 3.07 µM
4 | COc1c2ccoc2c(/C=C/C=O)c2oc(-c3ccccc3)cc(=O)c12 | 15.4 | > 100 µM
5 | Nc1cc2nc3ccccc3sc-2cc1=O | 5.66 | 22.1 µM
6 | CN(CC(=O)O)S(=O)(=O)c1ccc2ccccc2c1 |  | > 100 µM
7 | CCN(CC)CC(C(=O)Nc1c(C)cccc1C)/C(C)=N\NC(=O)C[N+](C)(C)C (stereo not drawn) |  | > 100 µM
8 | CC1=C(C(=O)Nc2ccccc2C)C(c2ccco2)C(C(=O)Nc2ccccc2C)=C(C)N1C |  | > 100 µM
9 | COc1cc2nc(-c3ccc(C(F)(F)F)cc3)cc(OCCCN3CCC(O)CC3)c2cc1OC | 0.376 | 13.1 µM
10 | O=[S@@]1Nc2ccc(Br)cc2S1 |  | > 100 µM
11 | O=C1NNC(=O)c2ccccc2SSc2ccccc2C(=O)NNC(=O)c2ccccc2SSc2ccccc21 | 18.1 | 50 µM and > 100 µM
12 | COc1ccc2c(c1)C1(C=N2)CCN(C(C)=O)CC1 |  | > 100 µM
13 | Fc1ccc(Nc2ncnc3ccc(-c4cnc5[nH]ccc5c4)cc23)cc1Cl | 0.502 | 19.5 µM
14 | Oc1ccc(Cl)cc1-c1cc(-c2ccccc2Cl)[nH]n1 | 2.87 | > 100 µM
15 | CCOC(=O)C(Sc1ccccc1)c1c(OC)cc(=O)oc1/C=[N+](/[O-])c1ccc(N(C)C)cc1 (stereo not drawn) |  | 32.1 µM
16 | COc1ccc2nc3cc(Cl)ccc3c(Sc3ccccc3[N+](=O)[O-])c2c1 |  | > 100 µM
17 | O=C(O)C(Cc1ccccc1)N1C(=O)N/C(=C\c2ccc(F)cc2)C1=O (stereo not drawn) |  | > 100 µM
18 | COc1ccc(C2=CSc3cc(Cl)c(C)cc3S(=O)(=O)N2C(C)=O)cc1 | 11.5 | 32.9 µM
19 | COc1cccc(NC(=O)CC(=O)n2nc(C)c(N=Nc3ccccc3)c2C)c1 |  | > 100 µM
20 | CC(=O)[O][Hg][c]1c(N)c(C)cc(C)c1F | 3.4 | 12.4 µM
21 | CCNC1C2(CCCCC2)NC(=O)C12CCCCC2 (stereo not drawn) |  | > 100 µM

tested on: HT29 colon; test: NCI-60 cell line screen, 48 h

Row | Compound | GI50 [µM] | TGI
22 | NC(CSC(c1ccccc1)(c1ccccc1)c1ccc2c(c1)OCO2)C(=O)O (stereo not drawn) | 1.81 | > 44.5 µM
23 | C=CCc1cc(OC)c2c(c1)C(O)CC(c1ccc(OC)c(OC)c1)O2 (stereo not drawn) |  | > 100 µM
24 | O=C(NCCNc1nccc(-c2c(-c3cccc(O)c3)nc3sccn23)n1)c1ccccc1O | 3.61 | 20.7 µM
25 | C[C@@H](CS(C)(=O)=O)Nc1ncc2cc(Oc3ccc(F)cc3F)c(=O)n(C)c2n1 | > 25 | > 25 µM
26 | CC(C)=CCCc1c(C)ccc2c1C(=O)C(=O)C(C(C)C)=C2 |  | > 22 µM
27 | CCOC(=O)Nc1nc2ccc(OCC)cc2s1 | 3.98 | > 100 µM
28 | NS(=O)(=O)c1ccccc1C(=O)N/N=C(\c1nc2ccc([N+](=O)[O-])cc2[nH]c1=O)C(O)c1ccc([N+](=O)[O-])cc1 (stereo not drawn) |  | > 100 µM
29 | COC(=O)[C@@H](C)C[C@H](Cc1ccc(F)cc1)NC(=O)c1csc([C@@H](C[C@H](C(C)C)N(C)C(=O)[C@@H](NC(=O)[C@H]2CCCCN2C)C(C)C)OC(C)=O)n1 |  | > 16.7 µM
30 | N#CC(C#N)=c1ccc(=C2NCC3CCCN23)cc1 (stereo not drawn) |  | > 100 µM
31 | COc1ccc2c(c1)C(=O)/C(=C/c1ccc(OCC(=O)Nc3nccs3)cc1)O2 | 5.31 | 29.2 µM
32 | Nc1ccc(C(=O)N/C(=C\c2ccc3c(c2)OCO3)c2nc3[nH]c(=S)[nH]c(=O)c3[nH]2)cc1 |  | > 100 µM
33 | O=[N+]([O-])c1cnc(Sc2ccncn2)s1 | 2.65 | 6.37 µM
34 | COC(=O)[C@@]12C3=NO[C@]1(C(=O)OC)C(O[Si](C)(C)C(C)(C)C)[C@H]1OC(C)(C)O[C@H]1[C@@H]2C(OCc1ccccc1)CC3 (stereo partly drawn) |  | > 100 µM
35 | COc1c2ccoc2c(/C=C/C=O)c2oc(-c3ccccc3)cc(=O)c12 | 25.1 | > 100 µM
36 | Nc1cc2nc3ccccc3sc-2cc1=O | 2.92 | 6.86 µM
37 | CN(CC(=O)O)S(=O)(=O)c1ccc2ccccc2c1 |  | > 100 µM

Row | Compound | GI50 [µM] | TGI
38 | CCN(CC)CC(C(=O)Nc1c(C)cccc1C)/C(C)=N\NC(=O)C[N+](C)(C)C (stereo not drawn) |  | > 100 µM
39 | CC1=C(C(=O)Nc2ccccc2C)C(c2ccco2)C(C(=O)Nc2ccccc2C)=C(C)N1C |  | > 100 µM
40 | COc1cc2nc(-c3ccc(C(F)(F)F)cc3)cc(OCCCN3CCC(O)CC3)c2cc1OC | 0.486 | 10.4 µM
41 | CC(=O)OC(C)C(=O)C1c2cccc(O)c2C(=O)c2c(O)cc(C)cc21 (stereo not drawn) |  | 3.03 µM
42 | O=[S@@]1Nc2ccc(Br)cc2S1 |  | > 100 µM
43 | O=C1NNC(=O)c2ccccc2SSc2ccccc2C(=O)NNC(=O)c2ccccc2SSc2ccccc21 | 20.1 | 50 µM and 72.1 µM
44 | COc1ccc2c(c1)C1(C=N2)CCN(C(C)=O)CC1 |  | > 100 µM
45 | CCOC(=O)C1=C(C)CC2C(=O)OC(=O)C2C1(C)C (stereo not drawn) |  | > 100 µM
46 | Fc1ccc(Nc2ncnc3ccc(-c4cnc5[nH]ccc5c4)cc23)cc1Cl | 2.05 | > 25.1 µM
47 | Oc1ccc(Cl)cc1-c1cc(-c2ccccc2Cl)[nH]n1 | 15.2 | > 100 µM
48 | CCOC(=O)C(Sc1ccccc1)c1c(OC)cc(=O)oc1/C=[N+](/[O-])c1ccc(N(C)C)cc1 (stereo not drawn) |  | 31.4 µM
49 | O=C(O)C(Cc1ccccc1)N1C(=O)N/C(=C\c2ccc(F)cc2)C1=O (stereo not drawn) |  | > 100 µM
50 | COc1cccc(NC(=O)CC(=O)n2nc(C)c(N=Nc3ccccc3)c2C)c1 |  | > 100 µM
51 | O=C(O)CCSC(=O)Nc1cccc(F)c1 |  | > 100 µM
52 | CCNC1C2(CCCCC2)NC(=O)C12CCCCC2 (stereo not drawn) |  | > 100 µM
53 | c1cc2c(cc1NC1=NCCO1)CCC2 |  | > 10 µM

tested on: EKVX NSCLC; test: NCI-60 cell line screen, 48 h

Row | Compound | GI50 [µM] | TGI
54 | NC(CSC(c1ccccc1)(c1ccccc1)c1ccc2c(c1)OCO2)C(=O)O (stereo not drawn) | 0.625 | 79.4 µM
55 | C=CCc1cc(OC)c2c(c1)C(O)CC(c1ccc(OC)c(OC)c1)O2 (stereo not drawn) |  | > 100 µM
56 | O=C(NCCNc1nccc(-c2c(-c3cccc(O)c3)nc3sccn23)n1)c1ccccc1O | 11.8 | 50.9 µM
57 | CC(C)=CCCc1c(C)ccc2c1C(=O)C(=O)C(C(C)C)=C2 |  | > 22 µM
58 | NS(=O)(=O)c1ccccc1C(=O)N/N=C(\c1nc2ccc([N+](=O)[O-])cc2[nH]c1=O)C(O)c1ccc([N+](=O)[O-])cc1 (stereo not drawn) |  | > 100 µM
59 | COC(=O)[C@@H](C)C[C@H](Cc1ccc(F)cc1)NC(=O)c1csc([C@@H](C[C@H](C(C)C)N(C)C(=O)[C@@H](NC(=O)[C@H]2CCCCN2C)C(C)C)OC(C)=O)n1 |  | > 16.7 µM
60 | COc1ccc2c(c1)C(=O)/C(=C/c1ccc(OCC(=O)Nc3nccs3)cc1)O2 | 2.04 | 
61 | Nc1ccc(C(=O)N/C(=C\c2ccc3c(c2)OCO3)c2nc3[nH]c(=S)[nH]c(=O)c3[nH]2)cc1 |  | > 100 µM
62 | O=[N+]([O-])c1cnc(Sc2ccncn2)s1 | 6.46 | 22.1 µM
63 | COC(=O)[C@@]12C3=NO[C@]1(C(=O)OC)C(O[Si](C)(C)C(C)(C)C)[C@H]1OC(C)(C)O[C@H]1[C@@H]2C(OCc1ccccc1)CC3 (stereo partly drawn) |  | > 100 µM
64 | CN(CC(=O)O)S(=O)(=O)c1ccc2ccccc2c1 |  | > 100 µM
65 | CC1=C(C(=O)Nc2ccccc2C)C(c2ccco2)C(C(=O)Nc2ccccc2C)=C(C)N1C |  | > 100 µM
66 | COc1cc2nc(-c3ccc(C(F)(F)F)cc3)cc(OCCCN3CCC(O)CC3)c2cc1OC | 1.03 | 21.7 µM
67 | CC(=O)OC(C)C(=O)C1c2cccc(O)c2C(=O)c2c(O)cc(C)cc21 (stereo not drawn) |  | 4.09 µM
68 | O=[S@@]1Nc2ccc(Br)cc2S1 |  | > 100 µM
69 | O=C1NNC(=O)c2ccccc2SSc2ccccc2C(=O)NNC(=O)c2ccccc2SSc2ccccc21 | 10.5 | 50 µM and > 100 µM
70 | COc1ccc2c(c1)C1(C=N2)CCN(C(C)=O)CC1 |  | > 100 µM
71 | CCOC(=O)C1=C(C)CC2C(=O)OC(=O)C2C1(C)C (stereo not drawn) |  | > 100 µM
72 | Fc1ccc(Nc2ncnc3ccc(-c4cnc5[nH]ccc5c4)cc23)cc1Cl | 0.769 | > 100 µM
73 | CCOC(=O)C(Sc1ccccc1)c1c(OC)cc(=O)oc1/C=[N+](/[O-])c1ccc(N(C)C)cc1 (stereo not drawn) |  | > 100 µM
74 | COc1ccc2nc3cc(Cl)ccc3c(Sc3ccccc3[N+](=O)[O-])c2c1 |  | > 100 µM
75 | O=C(O)C(Cc1ccccc1)N1C(=O)N/C(=C\c2ccc(F)cc2)C1=O (stereo not drawn) |  | > 100 µM
76 | COc1ccc(C2=CSc3cc(Cl)c(C)cc3S(=O)(=O)N2C(C)=O)cc1 | 38.2 | > 100 µM
77 | COc1cccc(NC(=O)CC(=O)n2nc(C)c(N=Nc3ccccc3)c2C)c1 |  | > 100 µM
78 | O=C(O)CCSC(=O)Nc1cccc(F)c1 |  | > 100 µM
79 | CCNC1C2(CCCCC2)NC(=O)C12CCCCC2 (stereo not drawn) |  | > 100 µM
80 | c1cc2c(cc1NC1=NCCO1)CCC2 |  | > 10 µM
